From ChEMBL document CHEMBL1201862, “PubChem BioAssay data set” (2004) come the findings set out here.

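Compound exposure: 48 hours, 5 concentrations, 96-well plates. The concentration for 50% growth inhibition is given as GI50.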 Calls of active or inactive are those of the source. Rule as the data show it: active = GI50 up to about 1.1 µM and inactive = higher. Where a SMILES comes first, the peptide text is derived from it.

Test systems include NCI-H23; HCT-15; SF-268; HT-29; SK-MEL-28; SF-295; A549; MDA-N; NCI-H522; HCT-116; KM12; MOLT-4; 786-0; NCI-H460; LOX IMVI; OVCAR-8; MDA-MB-435; BT-549; T47D; COLO 205.
Common to all, as to assay: growth of human tumour cells (NCI), 48 h

On to `O=c1[nH]c2nc(S)nc(S)c2[nH]1`, for which the GI50 in the assay on NCI-H23 was > 100 µM (inactive); in the assay with HCT-15, above 100 µM; with SF-268, > 100 µM (inactive); in the assay on HT-29 it was > 100 µM (inactive); in the assay on SK-MEL-28, > 100 µM (inactive); in the assay with SF-295, > 100 µM (inactive). For the same molecule, the GI50 in the assay with A549, in the assay on MDA-N, in the assay on NCI-H522, in the assay on HCT-116, in the assay with KM12 and in the assay with MOLT-4 was > 100 µM (inactive) throughout. For the same molecule, the GI50 with 786-0, in the assay on NCI-H460, with LOX IMVI, in the assay on OVCAR-8, with MDA-MB-435 and in the assay on BT-549 was > 100 µM (inactive) each time. Also, in the assay with T47D, the GI50 was > 100 µM (inactive).
Regarding `Cc1ccc(C2=NOC(=O)[C@@H]3CCCC[C@@H]23)cc1`, the GI50 was > 100 µM (inactive) in the assay with NCI-H23; above 100 µM with HCT-15; > 100 µM (inactive) in the assay on SF-268; > 100 µM (inactive) in the assay on HT-29; > 100 µM (inactive) in the assay with SK-MEL-28; > 100 µM (inactive) with SF-295. Moreover, the GI50 was > 10 µM (inactive) in the assay on A549; > 100 µM (inactive) with MDA-N; > 100 µM (inactive) in the assay on NCI-H522; > 100 µM (inactive) with HCT-116; > 100 µM (inactive) with KM12; > 100 µM (inactive) in the assay with MOLT-4. For the same molecule, the GI50 in the assay with 786-0, in the assay with LOX IMVI, in the assay with OVCAR-8, in the assay on MDA-MB-435, with COLO 205 and with BT-549 was > 100 µM (inactive) each time. For the same molecule, the GI50 with T47D was 76.4 µM (inactive).
Regarding `O=C1c2cc(Cl)ccc2-n2c(noc2=O)C2CSCN12` (stereo not drawn), the GI50 in the assay with HCT-15 is above 100 µM; in the assay on SF-268, > 100 µM (inactive); in the assay on HT-29 it was > 100 µM (inactive); with SK-MEL-28 it was > 100 µM (inactive); in the assay with SF-295, > 100 µM (inactive); with A549 it was > 100 µM (inactive). Besides, the GI50 in the assay with MDA-N, in the assay with NCI-H522, in the assay with HCT-116, with KM12, with MOLT-4 and with 786-0 was > 100 µM (inactive) throughout. Further, the GI50 in the assay on NCI-H460, in the assay with LOX IMVI, with OVCAR-8, in the assay with MDA-MB-435, in the assay with COLO 205 and in the assay on BT-549 was > 100 µM (inactive) throughout. Further, the GI50 in the assay on T47D was > 100 µM (inactive).
For `COc1ccc2c(-c3ccc(O)cc3)c(Oc3ccc(Cl)cc3)c(=O)oc2c1`, the GI50 was 2.79 µM (inactive) with NCI-H23; 4.66 µM in the assay on HCT-15; 8.07 µM (inactive) in the assay with SF-268; 7.71 µM (inactive) in the assay on SK-MEL-28; 6.43 µM (inactive) in the assay with SF-295; 4.7 µM (inactive) in the assay on A549. The GI50 in the assay with MDA-N is 6.34 µM (inactive); in the assay with NCI-H522 it was 2.55 µM (inactive); with HCT-116, 6.46 µM (inactive); with KM12, 5.75 µM (inactive); with MOLT-4, 3.72 µM (inactive); in the assay on 786-0 it was 7.85 µM (inactive). Further, the GI50 in the assay on NCI-H460 is 5.2 µM (inactive); in the assay on LOX IMVI, 11.1 µM (inactive); with OVCAR-8, > 34 µM (inactive); in the assay with MDA-MB-435, 7.43 µM (inactive); in the assay with COLO 205 it was 6.08 µM (inactive); in the assay on BT-549, 8.75 µM (inactive). Besides, the GI50 in the assay on T47D was 5.26 µM (inactive).
Regarding `Cc1ccc(S(=O)(=O)NC(=O)C2=C(c3ccccc3)[N-]N(C)c3nc4cccc[n+]4nc32)cc1`, the GI50 with NCI-H23 is > 100 µM (inactive); in the assay on HCT-15, above 100 µM; with SF-268, > 100 µM (inactive); in the assay on HT-29, > 100 µM (inactive); with SK-MEL-28 it was > 100 µM (inactive); with A549, > 100 µM (inactive). Further, the GI50 is > 100 µM (inactive) in the assay with MDA-N; 34.4 µM (inactive) in the assay on NCI-H522; > 100 µM (inactive) in the assay with HCT-116; > 100 µM (inactive) in the assay with KM12; 99.5 µM (inactive) in the assay with MOLT-4; > 100 µM (inactive) in the assay with 786-0. For the same molecule, the GI50 is > 100 µM (inactive) with NCI-H460; 96.4 µM (inactive) with LOX IMVI; 51.6 µM (inactive) with OVCAR-8; > 100 µM (inactive) in the assay with MDA-MB-435; 23.1 µM (inactive) in the assay with COLO 205; > 100 µM (inactive) in the assay on BT-549. In addition, in the assay with T47D, the GI50 is 55.1 µM (inactive).
As for `CC(=O)OC1/C(=C/c2ccc([N+](=O)[O-])cc2)C[C@H]2[C@@H]3CC=C4C[C@@H](OC(C)=O)CC[C@]4(C)[C@H]3CC[C@]12C` (stereo partly drawn), the GI50 in the assay on NCI-H23 was > 100 µM (inactive); in the assay with HCT-15, above 100 µM; in the assay with SF-268 it was 51.4 µM (inactive); in the assay with HT-29, > 100 µM (inactive); with SK-MEL-28, > 100 µM (inactive); with SF-295, > 73.6 µM (inactive). The GI50 was > 100 µM (inactive) in the assay on A549; > 100 µM (inactive) in the assay with MDA-N; > 91.8 µM (inactive) in the assay on NCI-H522; > 100 µM (inactive) in the assay with HCT-116; > 100 µM (inactive) in the assay with KM12; 70.6 µM (inactive) with 786-0. Further, the GI50 was > 100 µM (inactive) in the assay with NCI-H460; > 100 µM (inactive) in the assay with LOX IMVI; > 100 µM (inactive) in the assay with OVCAR-8; > 100 µM (inactive) with MDA-MB-435; > 54.6 µM (inactive) in the assay with COLO 205; > 100 µM (inactive) in the assay with BT-549. Moreover, the GI50 in the assay with T47D was > 100 µM (inactive).
Regarding `CCC(C)C(NC(=O)C1CCCN1C(=O)C(CC(C)C)NC(=O)C(CC(C)C)NC(=O)C(N)CC(C)C)C(=O)NC(C(=O)NCC(=O)NC(CC(N)=O)C(=O)NC(CC(C)C)C(=O)NC(CC(C)C)C(=O)NC(CC(C)C)C(N)=O)C(C)C` (stereo not drawn) (H-LLLPIVGNLLL-NH2; configuration not given here), the GI50 in the assay on NCI-H23 is > 50 µM (inactive); in the assay with HCT-15, above 50 µM; with SF-268, > 50 µM (inactive); with HT-29, > 50 µM (inactive); with SK-MEL-28, > 50 µM (inactive); in the assay with SF-295, > 50 µM (inactive). For the same molecule, the GI50 in the assay on A549, in the assay on MDA-N, in the assay on NCI-H522, in the assay on HCT-116, in the assay with KM12 and in the assay with MOLT-4 was > 50 µM (inactive) each time. Besides, the GI50 with 786-0, in the assay on LOX IMVI, in the assay with OVCAR-8, in the assay with MDA-MB-435, with COLO 205 and in the assay with BT-549 was > 50 µM (inactive) throughout. The GI50 in the assay with T47D was > 50 µM (inactive).
